Measurements: patent US20070073039A1, “Peptides that inhibit viral infections” (priority 2005, published 2007)

Tested on: HCV
Assay: HCV focus reduction assay
Type: cell-based, Hepatitis C virus (JFH-1)
Settings: for Fold Inhibition: inhibition of HCV infection; for Fold Inhibition / % of Mock: peptide approximately 20 μM, Huh-7.5.1 cells, 3 days; for % of Mock: number of HCV foci as % of mock (0.5% DMSO); for Fold inhibition of HCV infection: peptide library screen, approximately 20 μM; for 1/3 diluted / 1/9 diluted / No dilution: HCV foci; for 1/3 diluted: 1/3 of final concentration (6 μM); for 1/9 diluted: 1/9 of final concentration (2 μM); for No dilution: final concentration 17-20 μM, MOCK 53 ± 4
Procedure: To identify peptides that display antiviral activity against HCV infection, the peptide library was screened by an HCV focus reduction assay. The peptides were constituted in 100% DMSO at a final concentration 10 mg/mL, and stored in −20° C. The peptide stock solution was diluted 1:200 to a final concentration approximately 20 μM in complete DMEM growth medium containing 50 focus forming units (ffu) of HCV. The virus-peptide mixture was transferred to Huh-7.5.1 cells at a density of 8000 cells per well in a 96-well plate. After adsorption for 4 hours at 37° C., the inoculum was removed. The cells were washed 2 times, overlaid with 120 μL fresh growth medium and incubated at 37° C. After 3 days of culture, the cells were fixed with paraformaldehyde and immunostained with antibody against HCV nonstructural protein NS5A. The numbers of HCV foci were counted under fluorescent microscopy and the result is expressed as percentage (%) of mock with no peptide treatment but containing solvent 0.5% DMSO.
To determine whether the antiviral activity of peptide 1 is dependent on its primary amino acid sequence, four derivative peptides from peptide 1 were synthesized to a purity >95%. The four derivatives having the same composition of amino acids included (1) the reversed the sequence of peptide 1 (also called retro-peptide); (2) scrambled hydrophobic amino acids; (3) scrambled hydrophilic amino acids; and (4) a derivative in which the aspartic acid residues (D) were replaced with proline residues (P). The antiviral activity of the peptides was examined by HCV focus reduction assay at three peptide concentrations: 18 μM, 6 μM and 2 μM, as described above.

Sequence	Fold Inhibition	% of Mock	other results
MYVGGVEHRLEAACNWTR [Peptide 7016]	6.0 fold	16.7%	Fold inhibition of HCV infection: five-fold to ten-fold
GNTLTCYIKARAACRAAG [Peptide 7313]	2.2 fold	45.2%	–
EVFWAKHMWNFISGIQYL [Peptide 7177]	4.2 fold	23.8%	–
SIASWAIKWEYVVLLFLL [Peptide 7027]	2.5 fold	40.5%	–
SSGADTEDVVCCSMS [Peptide 7740]	2.3 fold	42.9%	–
PAILSPGALVVGVVCAAI [Peptide 7195]	2.3 fold	42.9%	–
HINSTALNCNESLNTGWL [Peptide 6986]	2.5 fold	40.5%	–
QIVGGVYLLPRRGPRLGV [Peptide 6930]	2.2 fold	45.2%	–
HTPVNSWLGNIIMFAPTL [Peptide 7329]	2.1 fold	47.6%	–
GSGLDERPYCWHYPPRPC [Peptide 6994]	3.0 fold	33.3%	–
DAILHTPGCVPCVREGNA [Peptide 6957]	4.7 fold	21.4%	–
LASCRRLTDFAQGWGPIS [Peptide 6991]	2.8 fold	35.7%	–
DTEDVVCCSMSYSW [Peptide 7741]	42.0 fold	2.4%	Inhibition of HCV infection (cell culture model of HCV infection): strongly inhibit HCV infection; Fold inhibition of HCV infection: more than ten-fold
LAALAAYCLSTGCVV [Peptide 7730]	4.7 fold	21.4%	–
GPISYANGSGLDERPYCW [Peptide 6993]	4.2 fold	23.8%	–
LPTTQLRRHIDLLVGSAT [Peptide 6962]	2.6 fold	38.1%	–
YVSGMTTDNLKCPCQIPS [Peptide 7226]	2.6 fold	38.1%	–
DDLVVICESAGVQEDAAS [Peptide 7317]	3.8 fold	26.2%	–
DQLEQALNCEIYGACYSI [Peptide 7334]	3.5 fold	28.6%	–
VSTATQTFLATCIN [Peptide 7725]	2.5 fold	40.5%	–
HPITKYIMTCMSADLEVV [Peptide 7160]	2.6 fold	38.1%	–
DSSVLCECYDAGCAWYEL [Peptide 7142]	2.5 fold	40.5%	–
GWFTAGYSGGDIYHSVSH [Peptide 7350]	2.3 fold	42.9%	–
GVPPLRAWRHRARSVRAR [Peptide 7342]	2.0 fold	50.0%	–
KWLCRIWSWISDVLDDFE (OTHER INFORMATION: A synthetic peptide)	–	–	1/3 diluted: 8 ± 6; 1/9 diluted: 15 ± 6; No dilution: 0 ± 0

Sequence	Fold Inhibition	% of Mock	other results
AYMNTPGLPVCQDHLEFW [Peptide 7146]	2.5 fold	40.5%	–
SIWRDWVDLICEFLSDWK (OTHER INFORMATION: A synthetic peptide)	–	–	1/3 diluted: 31 ± 2; 1/9 diluted: 16 ± 4; No dilution: 0 ± 0
KFDSLVECIWDWIDRLWS (OTHER INFORMATION: A synthetic peptide)	–	–	1/3 diluted: 50 ± 7; 1/9 diluted: 31 ± 3; No dilution: 1 ± 1
QPGYPWPLYGNEGCGWAG [Peptide 6937]	2.0 fold	50.0%	–
WMNSTGFTKVCGAPPCVI [Peptide 7005]	6.0 fold	16.7%	Fold inhibition of HCV infection: five-fold to ten-fold
TDFAQGWGPISYANGSGL [Peptide 6992]	3.2 fold	31.0%	–
KWEYVVLLFLLLADARVC [Peptide 7028]	2.1 fold	47.6%	–
PCVIGGVGNNTLLCPTDC [Peptide 7007]	3.0 fold	33.3%	–
NCNESLNTGWLAGLFYQH [Peptide 6987]	2.8 fold	35.7%	–
WRHRARSVRARLLSRGGR [Peptide 7343]	2.1 fold	47.6%	–
LEFWEGVFTGLTHIDAHF [Peptide 7148]	3.0 fold	33.3%	–
GWAGWLLSPRGSRPSWGP [Peptide 6939]	2.2 fold	45.2%	–
TVTESDIRTEEAIYQCCD [Peptide 7304]	2.8 fold	35.7%	–
GAVYAFYGMWPLLLLLLA [Peptide 7038]	5.3 fold	19.0%	Fold inhibition of HCV infection: five-fold to ten-fold
GMWPLLLLLLALPQRAYA [Peptide 7039]	3.2 fold	31.0%	–
TSTWVLVGGVLAAL (VTSTWVLVGGVLAAL) [Peptide 7729]	8.4 fold	11.9%	Fold inhibition of HCV infection: five-fold to ten-fold
LELITSCSSNVSVAHDGA [Peptide 7323]	2.3 fold	42.9%	–
RHIDLLVGSATLCSALYV [Peptide 6963]	3.2 fold	31.0%	–
WVLVGGVLAALAAYCLST [Peptide 7163]	3.8 fold	26.2%	–
SWLRPIWPWICEVLSDFK (OTHER INFORMATION: A synthetic peptide)	–	–	1/3 diluted: 21 ± 8; 1/9 diluted: 41 ± 2; No dilution: 9 ± 3
APTLWARMILMTHFFSVL [Peptide 7331]	2.2 fold	45.2%	–
RAAGLQDCTMLVCGDDLV [Peptide 7315]	2.0 fold	50.0%	–
DVVCCSMSYSWTGAL [Peptide 7742]	4.2 fold	23.8%	–
MWNFISGIQYLAGLSTLP [Peptide 7178]	2.3 fold	42.9%	–
